Source: patent publication US20200087284A1, “[4-(PHENYLSULFONYL)PIPERAZIN-1-YL](1H-1, 2, 3-TRIAZOL-4-YL)METHANONES” (priority 2016, published 2020)

Biological target: T1, recombinant human AKR1C3 (Homo sapiens, UniProt P42330)
T1 construct: GST (cleaved yes); made in house; host or cells: E. coli
T1 sequence (P42330 1-323): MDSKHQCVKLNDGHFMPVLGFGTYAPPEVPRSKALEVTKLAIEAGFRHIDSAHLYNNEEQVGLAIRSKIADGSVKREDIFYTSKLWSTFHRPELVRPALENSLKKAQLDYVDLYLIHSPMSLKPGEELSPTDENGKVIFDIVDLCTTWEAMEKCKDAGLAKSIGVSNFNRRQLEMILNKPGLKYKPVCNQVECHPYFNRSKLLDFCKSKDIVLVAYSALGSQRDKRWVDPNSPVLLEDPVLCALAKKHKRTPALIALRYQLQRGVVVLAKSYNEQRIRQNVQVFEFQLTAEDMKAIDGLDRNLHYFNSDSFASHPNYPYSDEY
Test: AKR1C3-inhibitory activity assay (Coumberone to Coumberol fluorescence)
Format: biochemical
Conditions: recombinant human AKR1C3, 10 μM NADPH, 0.3 μM Coumberone, 22° C., typically 90 min
Method: AKR1C3-Inhibitory Activity Assay
The AKR1C3-inhibitory activity of the substances of the present invention was measured in the AKR1C3 assay described in the paragraphs below.
Essentially, the enzyme activity is measured by quantification of the generation of Coumberol from Coumberone (Halim et al. J. AM. CHEM. SOC. 2008, 130:14123-14128 and Yee et al. Proc. Natl. Acad. Sci. USA 2006, 103:13304-13309). In this test, the increase of the highly fluorescent Coumberol by NADPH- (nicotinamide adenine dinucleotide phosphate)-dependent reduction of the non-fluorescent Coumberone by AKR1C3 was determined.
The enzyme used was recombinant human AKR1C3 (Aldo-keto reductase family 1 member C3; GenBank Accession No. NM_003739). This was expressed in E. coli as GST (glutathione S transferase) fusion protein and purified by glutathione Sepharose affinity chromatography. The GST was removed by digestion with thrombin and subsequent size exclusion chromatography (Dufort, I., Rheault, P., Huang, X F., Soucy, P., and Luu-The, V., Endocrinology 140, 568-574 (1999)).
For the assay, 50 nI of a 100-fold concentrated solution of the test substance in DMSO were pipetted into a black low-volume 384-well microtiter plate (Greiner Bio-One, Frickenhausen, Germany), 2.5 μl of a solution of AKR1C3 in assay buffer [50 mM potassium phosphate buffer pH 7, 1 mM DTT, 0.0022% (w/v) Pluronic F-127, 0.01% BSA (w/v) and protease inhibitor cocktail (Complete, EDTA-free Protease Inhibitor Cocktail from Roche)] were added and the mixture was incubated for 15 min to allow pre-binding of the substances to the enzyme prior to the enzyme reaction. The enzyme reaction was then started by addition of 2.5 μl of a solution of NADPH (20 μM→final concentration in 5 μl of assay volume is 10 μM) and Coumberone (0.6 μM→final concentration in 5 μl of assay volume is 0.3 μM) in assay buffer, and the resulting mixture was incubated at 22° C. for the reaction time of typically 90 min. The concentration of the AKR1C3 and the reaction time was adapted to the respective activity of the enzyme preparation and adjusted such that the assay was carried out in the linear range. Typical AKR1C3 concentrations were in the region of 1 nM. The reaction was stopped by addition of 2.5 μl of a stop solution consisting of 3 μM EM-1404 as inhibitor (U.S. Pat. No. 6,541,463) in 50 mM HEPES pH7.5 (3 μM EM-1404→final concentration in 7.5 μl of assay volume is 1 μM). The fluorescence of the Coumberole was then measured at 520 nm (excitation at 380 nm) using a suitable measuring instrument (Pherastar from BMG Labtechnologies). The intensity of the fluorescence was used as a measure of the amount of Coumberole formed and thus of the enzyme activity of AKR1C3. The data were normalized (enzyme reaction without inhibitor=0% inhibition; all other assay components, but no enzyme=100% inhibition).

Compound | IC50
Cc1ccc(S(=O)(=O)N2C[C@H](C)N(C(=O)c3cnn[nH]3)C[C@H]2C)cc1 [Example 1, {(2S,5R)-2,5-dimethyl-4-[(4-methylphenyl)sulfonyl]piperazin-1-yl}(1H-1,2,3-triazol-5-yl)methanone] | 6 nM
C[C@@H]1CN(C(=O)c2cnn[nH]2)[C@@H](C)CN1S(=O)(=O)c1ccc(F)cc1F [Example 2, {(2S,5R)-4-[(2,4-difluorophenyl)sulfonyl]-2,5-dimethylpiperazin-1-yl}(1H-1,2,3-triazol-5-yl)methanone] | 3 nM
Cc1ccc(S(=O)(=O)N2C[C@@H](C)N(C(=O)c3c[nH]nn3)[C@@H](C)C2)cc1 [Example 3, {(2R,6S)-2,6-dimethyl-4-[(4-methylphenyl)sulfonyl]piperazin-1-yl}(1H-1,2,3-triazol-4-yl)methanone] | 24 nM
C[C@@H]1CN(S(=O)(=O)c2ccc(F)cc2F)C[C@H](C)N1C(=O)c1c[nH]nn1 [Example 4, {(2R,6S)-4-[(2,4-difluorophenyl)sulfonyl]-2,6-dimethylpiperazin-1-yl}(1H-1,2,3-triazol-4-yl)methanone] | 12 nM
C[C@@H]1CN(S(=O)(=O)c2ccc(C(F)(F)F)cc2)C[C@H](C)N1C(=O)c1c[nH]nn1 [Example 5, [(2R,6S)-2,6-dimethyl-4-{[4-(trifluoromethyl)phenyl]sulfonyl}piperazin-1-yl](1H-1,2,3-triazol-4-yl)methanone] | 107 nM
Cc1ccc(S(=O)(=O)N2CCN(C(=O)c3cnn[nH]3)CC2(C)C)cc1 [Example 6, {3,3-dimethyl-4-[(4-methylphenyl)sulfonyl]piperazin-1-yl}(1H-1,2,3-triazol-5-yl)methanone] | 8 nM
CCc1ccc(S(=O)(=O)N2CCN(C(=O)c3cnn[nH]3)CC2(C)C)cc1 [Example 7, {4-[(4-ethylphenyl)sulfonyl]-3,3-dimethylpiperazin-1-yl}(1H-1,2,3-triazol-5-yl)methanone] | 8 nM
CC1(C)CN(C(=O)c2cnn[nH]2)CCN1S(=O)(=O)c1ccc(F)cc1F [Example 8, {4-[(2,4-difluorophenyl)sulfonyl]-3,3-dimethylpiperazin-1-yl}(1H-1,2,3-triazol-5-yl)methanone] | 45 nM
CC1(C)CN(C(=O)c2cnn[nH]2)CCN1S(=O)(=O)c1ccc(F)cc1Cl [Example 9, {4-[(2-chloro-4-fluorophenyl)sulfonyl]-3,3-dimethylpiperazin-1-yl}(1H-1,2,3-triazol-5-yl)methanone] | 11 nM
